Test results as given in patent publication US5560923A (Georgetown University, priority 1994, dated 1996).

Key:
[1] = Complex formation of drug with cardiolipin-containing liposomes (centrifugation, spectrophotometry of supernatant); assay type: physicochemical; conditions: same conditions as doxorubicin, mixed with cardiolipin-containing liposomes
Experimental: Formation of the complex liposome-doxorubicin was evaluated relative to the time of the incubation at 25° C. following the mixing of both components (FIG. 1).
Association capacity of doxorubicin to cardiolipin-liposomes was evaluated for different concentrations of mixture of both components mixed in the same volume (5 ml) after an incubation of 15 min. at 37° C. at a fixed liposome/doxorubicin weight ratio of 11 (Table 1).

[2] = test system: LZ cells; assay: Clonogenic assay, cytotoxicity / multidrug resistance reversal in LZ cells; conditions: mixed with cardiolipin-containing liposomes
Experimental: Percent survival of treated cells was determined relative to untreated control.

Structure (SMILES): CC[C@]1(O)C[C@H]2CN(CCc3c([nH]c4ccccc34)[C@@](C(=O)OC)(c3cc4c(cc3OC)N(C=O)[C@H]3[C@@](O)(C(=O)OC)[C@H](OC(C)=O)[C@]5(CC)C=CCN6CC[C@]43[C@@H]65)C2)C1 [vincristine]
- association between drug and liposome (in words) [1]: no association between drug and liposome was formed
- increase in drug cytotoxicity (in words) [2]: no increase in drug cytotoxicity was observed
